Data reported in patent publication US11780826B2 (Amgen Inc., priority 2017, dated 2023).

Tested on: Bovine cardiac myofibrils
Test: In vitro model of dose-dependent myofibril ATPase modulation (AC1.4, pyruvate kinase/lactate dehydrogenase-coupled ATPase assay at pCa25)
Type: biochemical
Conditions: concentration at which ATPase activity was 1.4-fold higher than the bottom of the dose curve, mean of a minimum of two independent tests
In short: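 ATP turnover tracked as NADH absorbance loss at 340 nm, coupled via pyruvate kinase/lactate dehydrogenase, with 1 mM ATP, 2 mM MgCl2 and 12 mM K-PIPES at pH 6.80 (22° C) under EGTA/CaCl2 calcium buffering. Substrate was detergent-treated bovine cardiac myofibrils; 4-parameter curve fit, AC1.4 averaged over at least two runs.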

AC1.4 [µM] | Compound
0.2589 | N#CC1CN(S(=O)(=O)N2CCO[C@H](C(=O)N3CCC[C@@H]3C(=O)NCc3ccc(C(F)(F)F)cc3)C2)C1 [Example 149, 1-(((2S)-4-((3-cyano-1-azetidinyl)sulfonyl)-2-morpholinyl)carbonyl)-N-(4-(trifluoromethyl)benzyl)-D-prolinamide]
0.2589 | C[C@@H](NC(=O)[C@H]1CCCN1C(=O)[C@H]1CCCN(S(=O)(=O)N2CC(S(C)(=O)=O)C2)C1)c1ccc(Cl)cc1 [Example 150, N-((1R)-1-(4-chlorophenyl)ethyl)-1-(((3S)-1-((3-(methylsulfonyl)-1-azetidinyl)sulfonyl)-3-piperidinyl)carbonyl)-D-prolinamide]
0.2616 | O=C(NCc1ccc(C(F)(F)F)cc1F)[C@H]1CCCN1C(=O)[C@H]1CCCN(S(=O)(=O)N2CC(n3ccnn3)C2)C1 [Example 151, N-(2-fluoro-4-(trifluoromethyl)benzyl)-1-(((3S)-1-((3-(1H-l,2,3-triazol-1-yl)-1-azetidinyl)sulfonyl)-3-piperidinyl)carbonyl)-D-prolinamide]
0.2624 | Cc1c(Cl)cccc1CNC(=O)[C@H]1CCCN1C(=O)[C@H]1CCCN(S(=O)(=O)N2CC(C#N)C2)C1 [Example 152, N-(3-chloro-2-methylbenzyl)-1-(((3S)-1-((3-cyano-1-azetidinyl)sulfonyl)-3-piperidinyl)carbonyl)-D-prolinamide]
0.2697 | N#CC1CN(S(=O)(=O)N2CCC[C@H](C(=O)N3CCC[C@@H]3C(=O)NCc3cc(F)c(F)c(F)c3)C2)C1 [Example 153, 1-(((3S)-1-((3-cyano-1-azetidinyl)sulfonyl)-3-piperidinyl)carbonyl)-N-(3,4,5-trifluorobenzyl)-D-prolinamide]
0.2715 | CS(=O)(=O)c1ccc(NCCO)c(C(=O)N2CCC[C@@H]2C(=O)N[C@@H](c2ccc(C(F)(F)F)cc2F)C2CC2)c1 [Example 154, N-((R)-cyclopropyl(2-fluoro-4-(trifluoromethyl)phenyl)methyl)-1-(2-((2-hydroxyethyl)amino)-5-(methylsulfonyl)benzoyl)-D-prolinamide]
0.272 | Cc1ccc(C(C)NC(=O)[C@H]2CCCN2C(=O)[C@H]2CCCN(S(=O)(=O)N3CC(C#N)C3)C2)cc1F (stereo partly drawn) [Example 155, 1-(((3S)-1-((3-cyano-1-azetidinyl)sulfonyl)-3-piperidinyl)carbonyl)-N-(-1-(3-fluoro-4-methylphenyl)ethyl)-D-prolinamide]
0.2727 | CC1(C#N)CN(S(=O)(=O)N2CCC[C@H](C(=O)N3CCC[C@@H]3C(=O)NCc3ccc(C(F)(F)F)cc3)C2)C1 [Example 156, 1-(((3S)-1-((3-cyano-3-methyl-1-azetidinyl)sulfonyl)-3-piperidinyl)carbonyl)-N-(4-(trifluoromethyl)benzyl)-D-prolinamide]
0.2727 | N#CC1CN(S(=O)(=O)c2cccc(C(=O)N3CCC[C@@H]3C(=O)NCc3ccc(CF)cc3)c2)C1 [Example 157, 1-((3-((3-cyano-1-azetidinyl)sulfonyl)phenyl)carbonyl)-N-(4-(fluoromethyl)benzyl)-D-prolinamide]
0.273 | N#CC1CN(S(=O)(=O)c2cccc(C(=O)N3CCC[C@@H]3C(=O)N[C@H](CO)c3cccc(C(F)(F)F)c3)c2)C1 [Example 158, 1-(3-((3-cyano-1-azetidinyl)sulfonyl)benzoyl)-N-((1S)-2-hydroxy-1-(3-(trifluoromethyl)phenyl)ethyl)-D-prolinamide]
0.2735 | CS(=O)(=O)c1ccnc(C(=O)N2CCCC[C@@H]2C(=O)N[C@@H](c2cc(F)c(Cl)cc2F)C2CC2)c1 [Example 159, (2R)-N-((R)-(4-chloro-2,5-difluorophenyl)(cyclopropyl)methyl)-1-((4-(methylsulfonyl)-2-pyridinyl)carbonyl)-2-piperidinecarboxamide]
